Series [1] addresses T1, hA3AR (Homo sapiens, UniProt P0DMS8).
T1 construct: expressed in transfected cells; host or cells: HEK293
T1 sequence (P0DMS8 1-318): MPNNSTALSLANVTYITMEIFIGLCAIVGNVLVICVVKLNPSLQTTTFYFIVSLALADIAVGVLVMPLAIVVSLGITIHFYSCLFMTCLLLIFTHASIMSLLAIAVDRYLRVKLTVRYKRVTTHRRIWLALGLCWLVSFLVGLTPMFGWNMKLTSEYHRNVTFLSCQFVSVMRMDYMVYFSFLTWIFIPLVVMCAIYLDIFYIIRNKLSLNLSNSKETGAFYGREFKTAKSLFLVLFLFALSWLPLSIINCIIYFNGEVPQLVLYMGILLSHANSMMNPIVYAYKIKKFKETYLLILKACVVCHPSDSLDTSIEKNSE
In words: TGFα shedding assay at hA3AR. The format is cell-based. To be noted: for Emax: HEK293 cells; for EC50: hA3AR-expressing HEK293 cells. Here is the method: This recently-developed assay utilizes an alkaline phosphatase-TGFα fusion protein reporter system to quantitatively evaluate specific GPCR-mediated G protein activation (shown in Figure 3) of test compounds [22].
Expression vectors (250 ng of AP-TGFα plasmid, 100 ng of hA2AAR/hA3AR plasmid and 50 ng of Gα protein) were transfected into HEK293 cells using Lipofectamine 2000 (1.25 μL/well) in 12-well plates. Transfection of siRNA (final concentration: 10 nM) was conducted with Lipofectamine RNAiMAX (1 μL/well), 48 h before assay to prevent interference from other signaling pathways. Transfected cells were detached with brief treatment with phosphate-buffered saline (PBS) containing 0.05% trypsin and 0.52 mM ethylenediaminetetraacetic acid (EDTA). The cell suspension was pelleted via centrifugation (190 g, 5 min). Trypsin was removed from the cells via resuspension in PBS, followed by 5 min of incubation at room temperature. Cells were subsequently pelleted with centrifugation (190 g, 5 min) and resuspended in Hank’s Balanced Salt Solution (HBSS) containing 5 mM 4-(2-hydroxyethyl)-1-piperazineethanesulfonic acid (HEPES) (pH 7.4). Resuspended cells were plated in 90 μL/well in 96-well plate and incubated at 37 °C in 5% CO2 for 30 min. 10 μL of 10X concentration of compounds were added and incubated for 1 h at 37 °C in 5% CO2. Plates were centrifuged at 190 g for 2 min. […] per well of conditioned medium (10 mM p-NPP, 40 mM Tris-HCl (pH 9.5), 40 mM NaCl & 10 mM MgCl2) was transferred into a conditioned medium plate and 80 µL per well of conditioned medium was added to the test compound plate. Absorbance at 405 nm (OD405) of both plates was read before and after a 1-h incubation at 37 °C using a microplate reader.

Series [2] concerns the target T1, hA3AR. To be noted: cited from earlier work.
Another series deals with Caco-2 cell line. The series is described as follows: MTT cytotoxicity assay, Caco-2. It counts as cell-based. To be noted: Homo sapiens; Caco-2, MTT, 72 h. Here is the method: (§1) Human colorectal carcinoma cell lines, HCT-116 and Caco-2, were used as models for colorectal cancer cells overexpressing hA3AR. Human normal colon cell line CCD-18Co was used as a model for normal colon cells that express normal levels of hA3AR. The HCT-116, Caco-2 and CCD-18Co cell lines were all cultured in accordance with the ATCC protocols.
(§2) The cytotoxicity of compound 4 was determined by 3-(4,5-dimethylthiazol-2-yl)-2,5-diphenyltetrazolium bromide (MTT) assay. The cells were harvested from culture flasks by trypsinisation and seeded into 96-well microculture plates (Costar, Corning, USA) at the seeding density of 6000 cells per well or 10,000 per well (CCD18Co). After the cells were allowed to resume exponential growth for 24 h, they were exposed to compound 4 or 2-Cl-IB-MECA in media for 72 h. The drugs were diluted in complete medium at the desired concentration, and 100 μL of the drug solution was added to each well and serially diluted to other wells. After exposure for 72 h, drug solutions were replaced with 100 μL of MTT in complete media (5 mg ml^−1) and incubated for an additional 1 h. Subsequently, the medium was aspirated and the purple formazan crystals formed in viable cells were dissolved in 100 μL of dimethyl sulfoxide (DMSO) per well. Optical densities were measured at 570 nm with a microplate reader. […]

The next series in a line: UV-vis stability assay. It counts as physicochemical. The settings on record: 50 μM in water, RPMI-1640 and DMEM culture medium over 72 h. Here is the method: Stock solution of 50 μM of compound 4 was prepared in DMSO. Two quartz cuvettes were soaked in 70% ethanol in water for 1h. The quartz cuvettes were subsequently left to dry in a biological safety cabinet. When both quartz cuvettes were dry, the quartz cuvettes, i.e., sample cuvette and blank cuvette, were filled with water or culture media (RPMI-1640 or DMEM) and parafilmed before being transferred into a UV-vis spectrophotometer (USA). The UV-vis spectrophotometer was auto-zeroed and the background was scanned from wavelengths of 200 nm to 800 nm. The sample cuvette was removed from the UV-vis spectrophotometer and transferred into the biological safety cabinet. Compound 4 was dissolved at a final concentration of 50 μM in 1.5 mL of water, RPMI or DMEM containing 10% FBS (without phenol red). The UV−vis profiles of the samples were monitored using UV-vis over 72 h at 1 h intervals from 200 to 800 nm.

A further series deals with HepG2 cell line. The series is described as follows: MTT cytotoxicity assay, HepG2. The format is cell-based. The settings on record: Homo sapiens, 72 h. Here is the method: The HepG2 cell line was also cultured in accordance with the ATCC protocol.
as §2, with “reader. The quantity of viable cells was expressed in terms of treated/control (T/C) values by comparison to untreated control cells, and 50% inhibitory concentrations (IC50) were calculated from concentration-effect curves by interpolation using GraphPad Prism (Version 5.0, GraphPad Software, USA).” for “reader.”

A further series concerns CCD-18Co cell line. The series is described as follows: MTT cytotoxicity assay, CCD-18Co. It counts as cell-based. The settings on record: Homo sapiens, CCD-18Co normal colon cell line, 72 h. Here is the method: as §1, §2
In a further series the test system is HCT-116 cell line. The series is described as follows: MTT cytotoxicity assay, HCT-116. The format is cell-based. To be noted: Homo sapiens; HCT-116, MTT, 72 h. Here is the method: as §1, §2
A further series deals with hA1. To be noted: cited from earlier work.
The target in another series is hA2B. To be noted: cited from earlier work.
The target of a further series is T2, hA2AAR (Homo sapiens, UniProt P29274).
T2 construct: expressed in transfected cells; host or cells: HEK293
T2 sequence (P29274 whole entry): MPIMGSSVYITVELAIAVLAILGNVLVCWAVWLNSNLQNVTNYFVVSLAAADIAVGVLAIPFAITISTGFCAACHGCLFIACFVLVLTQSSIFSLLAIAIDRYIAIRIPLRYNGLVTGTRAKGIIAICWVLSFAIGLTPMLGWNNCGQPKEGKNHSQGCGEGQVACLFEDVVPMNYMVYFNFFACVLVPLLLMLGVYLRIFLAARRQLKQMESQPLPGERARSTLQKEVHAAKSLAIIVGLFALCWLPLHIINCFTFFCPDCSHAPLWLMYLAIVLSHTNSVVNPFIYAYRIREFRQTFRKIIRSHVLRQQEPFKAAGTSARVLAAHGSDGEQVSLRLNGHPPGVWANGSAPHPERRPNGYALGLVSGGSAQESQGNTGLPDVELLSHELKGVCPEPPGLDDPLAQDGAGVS
The settings on record: ratio of binding affinities; cited from earlier work.

The target in series [3] is T1, hA3AR. The settings on record: read-out: Ki hA3; cited from earlier work.
In series [4] the test system is human colon carcinoma patients. To be noted: phase II; cited from earlier work.
[5] abbreviates: HEK293, efficacy as compared to adenosine, read-out: Emax.

Where two headings read alike, the source gives them in different places.

On to `Cc1cc(C)nc(N2CCN(CC(=O)c3c[nH]c4c([N+](=O)[O-])cccc34)CC2)n1` [Compound 6, 2-(4-(4,6-Dimethylpyrimidin-2-yl)piperazin-1-yl)-1-(7-nitro-1H-indol-3-yl)ethanone], for which the melting point is 165 °C (dec.). Besides, the maximal effect (Emax) on hA3AR [1] (setting [5]) turned out to be 72%. The EC50 at hA3AR [1] (read-out: EC50) was 33.2 ± 16.5 µM.
For the compound `Cc1cc(C)nc(N2CCN(CC(=O)c3c[nH]c4ccccc34)CC2)n1` [Compound 3, 2-(4-(4,6-Dimethylpyrimidin-2-yl)piperazin-1-yl)-1-(1H-indol-3-yl)ethanone], the melting point is 165 °C (dec.). Moreover, the EC50 entry on hA3AR [1] is “essentially inactive”.
Turning to `OC[C@H]1O[C@@H](n2cnc3c(NCc4cccc(I)c4)ncnc32)[C@H](O)[C@@H]1O` [MRS541], on hA3AR [2], the β-arrestin translocation response was 30.8 ± 1.6%.
For `Nc1ncnc2c1ncn2[C@@H]1O[C@H](CO)[C@@H](O)[C@H]1O` [Adenosine, reference compound], on hA3AR [1] (setting [5]), the Emax was determined as 100%.
Consider `COc1cccc2c(C(=O)CN3CCN(c4nc(C)cc(C)n4)CC3)c[nH]c12` [Compound 4, 2-(4-(4,6-Dimethylpyrimidin-2-yl)piperazin-1-yl)-1-(7-methoxy-1H-indol-3-yl)ethanone], for which the melting point was 162 °C (dec.). For the same compound, in the series with Caco-2 cell line, the IC50 is 77 ± 10 µM. Besides, the “Stability (UV-vis)” value in “UV-vis stability assay” is “excellent stability”. For the same compound, in the series on HepG2 cell line, the IC50 stood at 30 ± 7 µM. This compound also displayed an IC50 with CCD-18Co cell line of 176 ± 48 µM. On hA3AR [1] (setting [5]), the Emax came out at 30%. Further, the Emax at hA3AR [1] (efficacy as compared to adenosine) stood at 31%. Besides, the EC50 on hA3AR [1] (read-out: EC50) was determined as 2.89 ± 0.55 µM. Further, the IC50 in the series with HCT-116 cell line amounted to 84 ± 9 µM.
With `Cc1cc(C)nc(N2CCN(CCc3c(C)[nH]c4ccccc34)CC2)n1` [Compound 2, decarbonyl IPP], the Ki at hA1 was more than 100 µM; on hA2B it was more than 20 µM.
In the case of `Cc1cc(C)nc(N2CCN(C(=O)Cc3c(C)[nH]c4ccccc34)CC2)n1` [Compound 1, indolylpyrimidylpiperazine (IPP)], the values for the Ki at hA1, at hA3AR [3] and at hA2B were more than 100 µM, more than 100 µM and more than 20 µM, respectively. The “selectivity hA2AAR/hA3AR” value on hA2AAR is reported as more than 12.
Turning to `CNC(=O)[C@H]1O[C@@H](n2cnc3c(NCc4cccc(I)c4)ncnc32)[C@H](O)[C@@H]1O` [IB-MECA], the “disease stabilization, share of patients” value in series [4] was 35%. Besides, the β-arrestin translocation response on hA3AR [2] is recorded as 100 ± 7%.
For `CNC(=O)[C@H]1O[C@@H](n2cnc3c(NCc4cccc(I)c4)nc(Cl)nc32)[C@H](O)[C@@H]1O` [Compound 2-Cl-IB-MECA, 2-Cl-IB-MECA, reference compound], the IC50 in the series on Caco-2 cell line worked out at 31 ± 4 µM; with HepG2 cell line it was 13 ± 3 µM; in the series with HCT-116 cell line, 21 ± 6 µM. In addition, the β-arrestin translocation response at hA3AR [2] was 102 ± 13%.
With `Cc1cc(C)nc(N2CCN(CC(=O)c3c[nH]c4c(Cl)cccc34)CC2)n1` [Compound 5, 2-(4-(4,6-Dimethylpyrimidin-2-yl)piperazin-1-yl)-1-(7-chloro-1H-indol-3-yl)ethanone], the melting point was 163 °C (dec.). The Emax on hA3AR [1] (setting [5]) is 77%. Also, the concentration giving a half-maximal response (EC50) on hA3AR [1] (read-out: EC50) is 13.4 ± 2.96 µM.

Values taken from article PMC6832257, “Design, Synthesis and Evaluation of New Indolylpyrimidylpiperazines for Gastrointestinal Cancer Therapy” (Molecules, 2019).
